Experimental data: US20250312499A1, “KISSPEPTIN RECEPTOR (KISS1R) TARGETED THERAPEUTICS AND USES THEREOF” (priority 2024, published 2025)
Numbered stars: 1 amine (or outer) side, 2 acyl side, 3 side chain; on linkers, the order of the positions; unused ones are H or OH. Square brackets hold non-standard residues; d marks the D form. Peptide text beside a SMILES is read from it. * marks the point of attachment. DOTA = O=C(O)CN1CCN(CC(=O)O)CCN(CC(=O)*)CCN(CC(=O)O)CC1; Ala(9-anthryl) = N[C@@H](Cc1c2ccccc2cc2ccccc12)C(=O)O; Gly(N-(3-F-4-Me-benzyl)) = Cc1ccc(CNCC(=O)*)cc1F; Acetyl(2-(HOCH2CH2OCH2CH2O)) = O=C(COCCOCCO)*; Gly(Nα-4-MeO-benzyl) = COc1ccc(CNCC(=O)*)cc1; X4 = O=C(c1ccc(-c2ccccc2OCCCN[*:1])cc1)[*:2]; Butanoyl(4-(4-MePh)) = Cc1ccc(CCCC(=O)*)cc1; Api(1-amidino) = N=C(N)N1CCC(N)(C(=O)O)CC1; Hydrocinnamoyl(4-I) = O=C(CCc1ccc(I)cc1)*; Phe(4-CN) = N#Cc1ccc(C[C@H](N)C(=O)O)cc1; Gly(Nα-CH2(4-Pyr)) = O=C(O)CNCc1ccncc1; Phe(3-F) = N[C@@H](Cc1cccc(F)c1)C(=O)O; Phe(4-I) = N[C@@H](Cc1ccc(I)cc1)C(=O)O; d2Nal = N[C@H](Cc1ccc2ccccc2c1)C(=O)O; X1 = O=C(CN1CCC(N[*:1])CC1)[*:2]; dCya = N[C@H](CS(=O)(=O)O)C(=O)O; 4Pal = N[C@@H](Cc1ccncc1)C(=O)O; X15 = O=C(CNCCc1ccc(I)cc1)*; Api = NC1(C(=O)O)CCNCC1; PEG2 = NCCOCCOCCC(=O)O; Ahx = NCCCCCC(=O)O; azaGly = NNC(=O)O; βAla = NCCC(=O)O; Sar = CNCC(=O)O

Target: human kisspeptin receptor (Homo sapiens (Human), UniProt Q969F8)
Sequence (Q969F8 whole entry): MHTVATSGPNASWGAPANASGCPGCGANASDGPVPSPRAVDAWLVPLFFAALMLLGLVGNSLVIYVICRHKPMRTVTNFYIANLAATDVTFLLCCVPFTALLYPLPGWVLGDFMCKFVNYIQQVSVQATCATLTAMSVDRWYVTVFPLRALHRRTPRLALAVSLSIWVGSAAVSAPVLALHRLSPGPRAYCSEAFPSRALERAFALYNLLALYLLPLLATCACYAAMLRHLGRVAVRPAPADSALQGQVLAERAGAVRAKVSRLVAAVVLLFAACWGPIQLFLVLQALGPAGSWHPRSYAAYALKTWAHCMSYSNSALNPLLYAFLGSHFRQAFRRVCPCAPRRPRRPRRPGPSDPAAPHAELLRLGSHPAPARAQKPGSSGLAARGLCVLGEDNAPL
Experiment: Human KISS1R binding assay (membrane competition binding)
Details: 90 min at room temperature; competition with 0.2 nM [125I]-metastin (45-54); Flp-In T-Rex 293 kisspeptin membranes; metal complexes nonradioactive Ga, In, Lu; read-out: hKiSSR Binding Ki (90 min)
In short: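 Radioligand competition: 0.2 nM [125I]-metastin (45-54) displaced by test ligand (usually 0–10,000 nM) over 90 min at room temperature, pH 7.4 buffer with 0.1% BSA. Receptor source is crude membrane (5–10 μg) from tetracycline-induced Flp-In T-Rex 293 cells. Bound label filtered and counted; Ki from non-linear regression.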

Row | Compound | Ki
1 | Cc1ccc(CNCC(=O)N2CCC(NC(=O)[C@H](CC(C)C)NC(=O)NNC(=O)[C@H](Cc3cccc(F)c3)NC(=O)[C@@H](NC(=O)[C@H](CC(N)=O)NC(=O)[C@H](CCCCNC(=O)CN3CCN(CC(=O)O)CCN(CC(=O)O)CCN(CC(=O)O)CC3)NC(=O)[C@@H](Cc3ccc(O)cc3)NC(=O)COCCOCCO)[C@@H](C)O)(C(=O)N[C@@H](Cc3c[nH]c4ccccc34)C(N)=O)CC2)cc1F [Compound 64] ({Acetyl(2-(HOCH2CH2OCH2CH2O))}-[dY]K(DOTA)NT[Phe(3-F)][azaGly]L[Api](Gly(N-(3-F-4-Me-benzyl)))W-NH2) | < 10 nM
2 | Cc1ccc(CNCC(=O)N2CCC(NC(=O)[C@H](CC(C)C)NC(=O)NNC(=O)[C@H](Cc3ccccc3)NC(=O)[C@@H](CC(N)=O)NC(=O)[C@@H](CCC(=O)O)NC(=O)[C@@H](CCC(=O)O)NC(=O)[C@@H](CC(N)=O)NC(=O)[C@@H](CC(N)=O)NC(=O)CCNC(=O)CN3CCN(CC(=O)O)CCN(CC(=O)O)CCN(CC(=O)O)CC3)(C(=O)N[C@@H](Cc3c[nH]c4ccccc34)C(N)=O)CC2)cc1F [Compound 15] ({DOTA-βAla}-[dN][dN][dE][dE][dN]F[azaGly]L[Api](Gly(N-(3-F-4-Me-benzyl)))W-NH2) | > 100 nM
3 | CC(C)C[C@H](NC(=O)NNC(=O)[C@H](Cc1ccc(I)cc1)NC(=O)[C@@H](NC(=O)[C@H](CC(N)=O)NC(=O)[C@H](Cc1c2ccccc2cc2ccccc12)NC(=O)[C@@H](Cc1ccc(O)cc1)NC(=O)CN1CCN(CC(=O)O)CCN(CC(=O)O)CCN(CC(=O)O)CC1)[C@@H](C)O)C(=O)NC1(C(=O)N[C@@H](Cc2ccncc2)C(N)=O)CCN(C(=N)N)CC1 [Compound 188] ({DOTA}-[dY][Ala(9-anthryl)]NT[Phe(4-I)][azaGly]L[Api(1-amidino)][4Pal]-NH2) | 10 to 100 nM
4 | CC(C)C[C@H](NC(=O)NNC(=O)[C@H](Cc1ccccc1)NC(=O)[C@@H](NC(=O)[C@H](CC(N)=O)NC(=O)[C@@H](Cc1ccc2ccccc2c1)NC(=O)[C@@H](Cc1ccc(O)cc1)NC(=O)CCCCCNC(=O)CN1CCN(CC(=O)O)CCN(CC(=O)O)CCN(CC(=O)O)CC1)[C@@H](C)O)C(=O)NC1(C(=O)N[C@H](Cc2c[nH]c3ccccc23)C(N)=O)CCNCC1 [Compound 339] ({DOTA-Ahx}-[dY][d2Nal]NTF[azaGly]L[Api][dW]-NH2) | < 10 nM
5 | CC(C)C[C@H](NC(=O)NNC(=O)[C@H](Cc1ccccc1)NC(=O)[C@@H](NC(=O)[C@H](CC(N)=O)NC(=O)[C@@H](Cc1ccc2ccccc2c1)NC(=O)[C@@H](Cc1ccc(O)cc1)NC(=O)CCCCCNC(=O)CN1CCN(CC(=O)O)CCN(CC(=O)O)CCN(CC(=O)O)CC1)[C@@H](C)O)C(=O)NC1(C(=O)N[C@H](Cc2c[nH]c3ccccc23)C(N)=O)CCN(C(=O)CNCCc2ccc(I)cc2)CC1 [Compound 373] ({DOTA-Ahx}-[dY][d2Nal]NTF[azaGly]L[Api](X15)[dW]-NH2) | 10 to 100 nM
6 | Cc1ccc(CNCC(=O)N2CCC(NC(=O)[C@H](CC(C)C)NC(=O)NNC(=O)[C@H](Cc3ccccc3)NC(=O)[C@@H](NC(=O)CN3CCC(NC(=O)CN4CCN(CC(=O)O)CCN(CC(=O)O)CCN(CC(=O)O)CC4)CC3)[C@@H](C)O)(C(=O)N[C@@H](Cc3ccc(O)cc3)C(N)=O)CC2)cc1F [Compound 250] ({DOTA}-[X1]TF[azaGly]L[Api](Gly(N-(3-F-4-Me-benzyl)))Y-NH2) | < 10 nM
7 | Cc1ccc(CNCC(=O)N2CCC(NC(=O)c3ccc(-c4ccccc4)c(OCCNC(=O)[C@H](Cc4ccccc4)NC(=O)CN4CCC(NC(=O)CN5CCN(CC(=O)O)CCN(CC(=O)O)CCN(CC(=O)O)CC5)CC4)c3)(C(=O)N[C@@H](Cc3c[nH]c4ccccc34)C(N)=O)CC2)cc1F [Compound 214] | < 10 nM
8 | CC(C)C[C@H](NC(=O)NNC(=O)[C@H](Cc1ccccc1)NC(=O)[C@@H](NC(=O)[C@H](CC(N)=O)NC(=O)[C@@H](Cc1ccc2ccccc2c1)NC(=O)[C@@H](Cc1ccc(O)cc1)NC(=O)CCCCCNC(=O)CN1CCN(CC(=O)O)CCN(CC(=O)O)CCN(CC(=O)O)CC1)[C@@H](C)O)C(=O)NC1(C(=O)N[C@H](Cc2c[nH]c3ccccc23)C(N)=O)CCN(C(=O)CNCc2ccncc2)CC1 [Compound 370] ({DOTA-Ahx}-[dY][d2Nal]NTF[azaGly]L[Api](Gly(Nα-CH2(4-Pyr)))[dW]-NH2) | > 100 nM
9 | Cc1ccc(CNCC(=O)N2CCC(NC(=O)[C@H](CC(C)C)NC(=O)NNC(=O)[C@H](Cc3ccccc3)NC(=O)CCCCCNC(=O)[C@@H](CS(=O)(=O)O)NC(=O)CN3CCN(CC(=O)O)CCN(CC(=O)O)CCN(CC(=O)O)CC3)(C(=O)N[C@@H](Cc3c[nH]c4ccccc34)C(N)=O)CC2)cc1F [Compound 116] ({DOTA}-[dCya][Ahx]F[azaGly]L[Api](Gly(N-(3-F-4-Me-benzyl)))W-NH2) | < 10 nM
10 | Cc1ccc(CNCC(=O)N2CCC(NC(=O)c3cc(OCCNC(=O)[C@H](Cc4ccccc4)NC(=O)CCCCCNC(=O)CN4CCN(CC(=O)O)CCN(CC(=O)O)CCN(CC(=O)O)CC4)c(-c4ccccc4)cc3C)(C(=O)N[C@@H](Cc3c[nH]c4ccccc34)C(N)=O)CC2)cc1F [Compound 282] | > 100 nM
11 | COc1ccc(CNCC(=O)N2CCC(NC(=O)[C@H](CC(C)C)NC(=O)NNC(=O)[C@H](Cc3ccccc3)NC(=O)[C@@H](NC(=O)[C@H](CC(N)=O)NC(=O)[C@H](CCC(=O)O)NC(=O)CN3CCN(CC(=O)O)CCN(CC(=O)O)CCN(CC(=O)O)CC3)[C@@H](C)O)(C(=O)N[C@@H](Cc3ccccc3)C(N)=O)CC2)cc1 [Compound 237] ({DOTA}-ENTF[azaGly]L[Api](Gly(Nα-4-MeO-benzyl))F-NH2) | < 10 nM
12 | Cc1ccc(CNCC(=O)N2CCC(NC(=O)[C@H](CC(C)C)NC(=O)NNC(=O)[C@H](Cc3ccccc3)NC(=O)[C@@H](NC(=O)[C@H](CC(N)=O)NC(=O)[C@@H](Cc3c[nH]c4ccccc34)NC(=O)CCCCCNC(=O)CN3CCN(CC(=O)O)CCN(CC(=O)O)CCN(CC(=O)O)CC3)[C@@H](C)O)(C(=O)N[C@@H](Cc3ccncc3)C(N)=O)CC2)cc1F [Compound 290] ({DOTA-Ahx}-[dW]NTF[azaGly]L[Api](Gly(N-(3-F-4-Me-benzyl)))[4Pal]-NH2) | < 10 nM
13 | CC(=O)N[C@H](Cc1ccc(O)cc1)C(=O)N[C@@H](CCCCNC(=O)CN1CCN(CC(=O)O)CCN(CC(=O)O)CCN(CC(=O)O)CC1)C(=O)N[C@@H](CC(N)=O)C(=O)N[C@H](C(=O)N[C@@H](Cc1ccccc1)C(=O)NNC(=O)N[C@@H](CC(C)C)C(=O)NC1(C(=O)N[C@@H](Cc2c[nH]c3ccccc23)C(N)=O)CCN(C(=O)CNCc2ccc(C)c(F)c2)CC1)[C@@H](C)O [Compound 380] (Ac-[dY]K(DOTA)NTF[azaGly]L[Api](Gly(N-(3-F-4-Me-benzyl)))W-NH2) | < 10 nM
14 | Cc1ccc(CCCC(=O)N2CCC(NC(=O)[C@H](CC(C)C)NC(=O)NNC(=O)[C@H](Cc3ccccc3)NC(=O)CCCCCNC(=O)CN3CCN(CC(=O)O)CCN(CC(=O)O)CCN(CC(=O)O)CC3)(C(=O)N[C@@H](Cc3c[nH]c4ccccc34)C(N)=O)CC2)cc1 [Compound 7] ({DOTA-Ahx}-F[azaGly]L[Api](Butanoyl(4-(4-MePh)))W-NH2) | 10 to 100 nM
15 | Cc1ccc(CNCC(=O)N2CCC(NC(=O)[C@H](CC(C)C)NC(=O)NNC(=O)[C@H](Cc3ccccc3)NC(=O)[C@@H](NC(=O)[C@H](CC(N)=O)NC(=O)[C@@H](Cc3c[nH]c4ccccc34)NC(=O)[C@@H](Cc3ccc(O)cc3)NC(=O)CCCCCNC(=O)CN3CCN(CC(=O)O)CCN(CC(=O)O)CCN(CC(=O)O)CC3)[C@@H](C)O)(C(=O)N[C@@H](Cc3c[nH]c4ccccc34)C(N)=O)CC2)cc1F [Compound 1] ({DOTA-Ahx}-[dY][dW]NTF[azaGly]L[Api](Gly(N-(3-F-4-Me-benzyl)))W-NH2) | < 10 nM
16 | Cc1ccc(CNCC(=O)N2CCC(NC(=O)[C@H](CC(C)C)NC(=O)NNC(=O)c3ccc(-c4ccccc4OCCCNC(=O)CN4CCN(CC(=O)O)CCN(CC(=O)O)CCN(CC(=O)O)CC4)cc3)(C(=O)N[C@@H](Cc3c[nH]c4ccccc34)C(N)=O)CC2)cc1F [Compound 298] ({DOTA}-[X4][azaGly]L[Api](Gly(N-(3-F-4-Me-benzyl)))W-NH2) | < 10 nM
17 | Cc1ccc(CNCC(=O)N2CCC(NC(=O)c3ccnc(CNC(=O)[C@H](Cc4ccccc4)NC(=O)CCCCCNC(=O)CN4CCN(CC(=O)O)CCN(CC(=O)O)CCN(CC(=O)O)CC4)c3)(C(=O)N[C@@H](Cc3c[nH]c4ccccc34)C(N)=O)CC2)cc1F [Compound 136] | > 100 nM
18 | CC(C)C[C@H](NC(=O)NNC(=O)[C@H](Cc1ccccc1)NC(=O)[C@@H](NC(=O)[C@H](CC(N)=O)NC(=O)[C@H](CCCCNC(=O)CN1CCN(CC(=O)O)CCN(CC(=O)O)CCN(CC(=O)O)CC1)NC(=O)[C@@H](Cc1ccc(O)cc1)NC(=O)CCOCCOCCNC(=O)CCc1ccc(I)cc1)[C@@H](C)O)C(=O)NC1(C(=O)N[C@@H](Cc2ccc(C#N)cc2)C(N)=O)CCN(C(=N)N)CC1 [Compound 325] ({Hydrocinnamoyl(4-I)-PEG2}-[dY]K(DOTA)NTF[azaGly]L[Api(1-amidino)][Phe(4-CN)]-NH2) | < 10 nM
19 | CC(C)C[C@H](NC(=O)NNC(=O)[C@H](Cc1ccccc1)NC(=O)[C@@H](NC(=O)[C@H](CC(N)=O)NC(=O)[C@H](CCCCNC(=O)CN1CCN(CC(=O)O)CCN(CC(=O)O)CCN(CC(=O)O)CC1)NC(=O)[C@@H](Cc1ccc(O)cc1)NC(=O)CCOCCOCCNC(=O)CCc1ccc(I)cc1)[C@@H](C)O)C(=O)NC1(C(=O)N[C@@H](Cc2ccc(O)cc2)C(N)=O)CCN(C(=N)N)CC1 [Compound 324] ({Hydrocinnamoyl(4-I)-PEG2}-[dY]K(DOTA)NTF[azaGly]L[Api(1-amidino)]Y-NH2) | < 10 nM
20 | Cc1ccc(CNCC(=O)N2CCC(NC(=O)[C@H](CC(C)C)NC(=O)CN(C)C(=O)[C@H](Cc3ccccc3)NC(=O)CCCCCNC(=O)CN3CCN(CC(=O)O)CCN(CC(=O)O)CCN(CC(=O)O)CC3)(C(=O)N[C@@H](Cc3c[nH]c4ccccc34)C(N)=O)CC2)cc1F [Compound 12] ({DOTA-Ahx}-F[Sar]L[Api](Gly(N-(3-F-4-Me-benzyl)))W-NH2) | 10 to 100 nM
